Patent publication US20120003661A1, “METHODS AND DEVICES FOR THE SELECTIVE DETECTION OF MICROORGANISMS” (C3 JIAN, INC., priority 2010, published 2012)
“Also recorded” adds a separate entry of the source. Where two headings read alike, the source gives them in different places.

Test system: bacteria, fungi, and/or yeasts
Assay type: binding
[1] = microorganism(s) the targeting peptide binds, as listed in Table 2
[2] = microorganism(s) listed as target(s) of the targeting peptide, wrapped target lists given cell by cell
[3] = microorganism(s) that the targeting peptide binds, as listed in Table 2

1T-114 (RQAPGPGLVTITAACSAPGSRSR)
Target(s) [1]: A. naeslundii, P. gingivalis, S. epidermidis,; also recorded: S. gordonii, S. mitis,; also recorded: S. mutans, S. oralis, S. sanguinis

PF-008 (MIEIGSIAYLNGGSKKYNHILNQENR)
Target(s) [2]: S. epidermidis, M. luteus, MRSA,; also recorded: C. jejuni

1T-19 (PGAFRNPQMPRG)
Target(s) [1]: S. aureus, S. epidermidis, P. aeruginosa

PF-158 (VRLESRPADLPE)
Target(s) [2]: S. epidermidis

PF-C137 (QRMYWFKRGFETGDFSAGDTFAELK)
Target(s) [3]: A. naeslundii, F. nucleatum, P. gingivalis,; also recorded: S. mutans

1T-33 (VRTLTILVIFIFNYLKSISYKLKQPFENNLAQSMISI)
Target(s) [1]: S. aureus, S. epidermidis, C. jeikeium,; also recorded: C. xerosis, C. striatum,; also recorded: P. aeruginosa

1T-71 (KIDTNQWPPNKEG)
Target(s) [1]: P. aeruginosa

1T-284 (FQYYFSLKRV)
Target(s) [2]: A. naeslundii, F. nucleatum, P. gingivalis,; also recorded: S. gordonii, S. mitis,; also recorded: S. mutans, S. oralis, S. salivarious,; also recorded: S. sanguinis

TT-307 (NGDKKAKEELDKWDEVIKELNIQF)
Target(s) [2]: F. nucleatum

PF-051 (RFFNFEIKKSTKVDYVFAHVDLSDV)
Target(s) [2]: C. albicans hyphae; also recorded: S. epidermidis, M. luteus, P. aeruginosa,; also recorded: C. albicans, MRSA,; also recorded: S. pneumoniae, E. faecalis

Rv1535 (DPLVDGAARLLSIPLRHLYAALWRVGLLEVQA)
Target(s) [2]: C. albicans

PF-144 (RSGQPVGRPSRRAWLR)
Target(s) [2]: S. epidermidis, M. luteus, E. coli,; also recorded: C. albicans, MRSA, S. pneumoniae,; also recorded: E. faecalis, C. jeikeium

PF-145 (GIVLTGRAGLVSGACSMALGVGLG)
Target(s) [2]: S. epidermidis, M. luteus, P. mirabilis,; also recorded: E. coli, P. aeruginosa,; also recorded: C. albicans, MRSA, S. pneumoniae,; also recorded: E. faecalis, C. jeikeium,; also recorded: C. jejuni, M. smegmatis

PF-016 (RKQYDDLSFNFLY)
Target(s) [2]: S. epidermidis, E. faecalis, C. jeikeium

PF-C088 (DIANNILNSVSERLIIA)
Target(s) [3]: A. naeslundii, F. nucleatum, P. gingivalis,; also recorded: S. mutans, T. denticola

1T-233 (TDQELEHLIVTELESKRLDFTYSKDITEFFDEAFPEYDQNY)
Target(s) [1]: A. naeslundii, P. gingivalis, S. epidermidis,; also recorded: S. gordonii, S. mitis,; also recorded: S. mutans, S. oralis, S. salivarious,; also recorded: S. sanguinis

1T-228 (IFKLFEEHLLYLLDAFYYSKIFRRLKQGLYRRKEQPYTQDLFRM)
Target(s) [1]: A. naeslundii, F. nucleatum, P. gingivalis,; also recorded: S. epidermidis, S. gordonii,; also recorded: S. mitis, S. mutans, S. oralis,; also recorded: S. salivarious, S. sanguinis

PF-022 (MINELKNKNSGIMNNYVVTKESKL)
Target(s) [2]: M. luteus, P. mirabilis, E. coli, P. aeruginosa,; also recorded: C. albicans, MRSA,; also recorded: S. pneumoniae, E. faecalis, C. jeikeium,; also recorded: C. jejuni

PF-629 (GLAAIATVFALY)
Target(s) [2]: yeast and hyphal forms

PF-C271 (FFPSYYSIIITYF)
Target(s) [3]: A. naeslundii, F. nucleatum, P. gingivalis,; also recorded: S. mutans, T. denticola

1T-177 (GTNVPTQILGYSREERFDYEPAPEQR)
Target(s) [1]: P. gingivalis, S. gordonii, S. mitis,; also recorded: S. mutans, S. oralis, S. salivarious,; also recorded: S. sanguinis

1T-62 (GCKGCAQRDPCAEPEPYFRLR)
Target(s) [1]: S. epidermidis, P. aeruginosa

1T-160 (AQYKYINKLLN)
Target(s) [1]: A. naeslundii, F. nucleatum, P. gingivalis,; also recorded: T. denticola, S. gordonii,; also recorded: S. mitis, S. mutans, S. oralis,; also recorded: S. salivarious, S. sanguinis

1T-110 (LAAKTAVCVGRAFM)
Target(s) [1]: A. naeslundii, P. gingivalis, S. epidermidis,; also recorded: S. gordonii, S. mitis,; also recorded: S. mutans, S. oralis, S. sanguinis

PF-076 (LYQYELLSKEEYLKCTLIINQRRNEQK)
Target(s) [2]: S. epidermidis, M. luteus, E. coli,; also recorded: P. aeruginosa, C. albicans,; also recorded: MRSA, S. pneumoniae, E. faecalis,; also recorded: C. jeikeium, C. jejuni

PF-132 (RPGDGAAEQGRSR)
Target(s) [2]: S. epidermidis, C. jeikeium

PF-053 (KLFGQWGPELGSIYILPALIGSIILIAIVTLILRAMRK)
Target(s) [2]: S. epidermidis, M. luteus, E. coli,; also recorded: P. aeruginosa, C. albicans,; also recorded: MRSA, S. pneumoniae, E. faecalis

PF-055 (GHVFNGNNKRNL)
Target(s) [2]: S. mutans

PF-034 (EPKKKHFPKMESASSEP)
Target(s) [2]: M. luteus

PF-S026 (TELKYNGEEYLLLTQRDILAVIEK)
Target(s) [3]: S. epidermidis, MRSA, C. jeikeium

1T-63 (EPLILKELVRNLFLFCYARALR)
Target(s) [1]: S. aureus, S. epidermidis, C. jeikeium,; also recorded: C. xerosis, C. striatum,; also recorded: P. aeruginosa

1T-115 (LLIERFSNHH)
Target(s) [1]: A. naeslundii, F. nucleatum, P. gingivalis,; also recorded: S. epidermidis, S. gordonii,; also recorded: S. mitis, S. mutans, S. oralis,; also recorded: S. salivarious, S. sanguinis

1T-96 (VAGACAQPFGGQ)
Target(s) [1]: S. gordonii, S. mitis, S. mutans,; also recorded: S. oralis, S. sanguinis

1T-157 (RRFRKTTENREKSKNKKAVLGLSTTSTASY)
Target(s) [1]: A. naeslundii, F. nucleatum, P. gingivalis,; also recorded: T. denticola, S. gordonii,; also recorded: S. mitis, S. mutans, S. oralis,; also recorded: S. salivarious, S. sanguinis

PF-791 (IFLTTQNTDYSEHNAA)
Target(s) [3]: S. mutans

PF-013 (LIQKGLNQTFIVVIRLNNFIKKS)
Target(s) [2]: M. luteus, P. mirabilis, E. coli, P. aeruginosa,; also recorded: MRSA, S. pneumoniae,; also recorded: C. jeikeium, C. jejuni

PF-099 (EIIAYLEGRFANA)
Target(s) [2]: S. epidermidis, M. luteus, E. coli,; also recorded: C. jeikeium

1T-223 (NQKMEINSMTSEKEKMLAGHFHNEANFAVIFKYSLFYNFF)
Target(s) [1]: A. naeslundii, F. nucleatum, P. gingivalis,; also recorded: S. epidermidis, S. gordonii,; also recorded: S. mitis, S. mutans, S. oralis,; also recorded: S. salivarious, S. sanguinis

1T-182 (LTASICRQWNDNSTPYQR)
Target(s) [1]: A. naeslundii, F. nucleatum, P. gingivalis,; also recorded: T. denticola, S. gordonii,; also recorded: S. mitis, S. mutans, S. oralis,; also recorded: S. salivarious, S. sanguinis

1T-113 (HGAHQRTGQRLHHHRGRTVSGCRQNPVAGVDPDEHR)
Target(s) [1]: S. mitis

TT-311 (AIFDAMHNL)
Target(s) [2]: S. mutans, S. sobrinus

1T-56 (LALIGAGIWMIRKG)
Target(s) [1]: C. xerosis, P. aeruginosa

PF-009 (SKKYNHILNQENR)
Target(s) [2]: yeast and hyphal forms; also recorded: M. luteus, P. mirabilis, C. albicans

PF-C058 (FETGFGDGYYMSLWGLNEKDEVCKVVIPFINPELID)
Target(s) [3]: A. naeslundii, F. nucleatum, P. gingivalis,; also recorded: S. mutans

PF-C180 (TVEELDKAFTWGAAAALAIGVIAINVGLAAGYCYNNNDVF)
Target(s) [3]: F. nucleatum, P. gingivalis, S. mutans,; also recorded: T. denticola

1T-87 (EAVGQDLVDAHHP)
Target(s) [1]: S. mitis, S. mutans, S. oralis

1T-276 (ILTLLILGSIGFFILKIKLKLGRF)
Target(s) [2]: A. naeslundii, F. nucleatum, P. gingivalis,; also recorded: S. epidermidis, S. gordonii,; also recorded: gordonii, S. mitis, S. mutans, S. oralis,; also recorded: S. sanguinis

1T-238 (IFNRRKFFQYFGLSKEAMVEHIQPFILDIWQIHLF)
Target(s) [1]: A. naeslundii, F. nucleatum, P. gingivalis,; also recorded: S. epidermidis, S. gordonii,; also recorded: S. mitis, S. mutans, S. oralis,; also recorded: S. salivarious, S. sanguinis

PF-C142 (DFPPLSFFRRRFHAYTAPIDNFFGANPF)
Target(s) [3]: A. naeslundii, F. nucleatum, P. gingivalis,; also recorded: S. mutans, T. denticola

1T-91 (TSVRPGAAGAAVPAGAAGAAGAGWRWP)
Target(s) [1]: S. mitis, S. mutans, S. oralis, S. sanguinis

1T-121 (FAKETGFGIGGAQEGWWIIADIYGPNPF)
Target(s) [1]: S. gordonii, S. mitis, S. mutans,; also recorded: S. oralis, S. salivarious, S. sanguinis

1T-126 (QGLARPVLRRIPL)
Target(s) [1]: S. gordonii, S. mitis, S. mutans

1T-83 (QKPRKNETFIGYIQRYDIDGNGYQSLPCPQN)
Target(s) [1]: S. pneumoniae

1T-221 (DIGRIIGKKGRTITAIRSIVYSVPTQGKKVRLVIDEK)
Target(s) [1]: A. naeslundii, F. nucleatum, P. gingivalis,; also recorded: S. epidermidis, S. gordonii,; also recorded: S. mitis, S. mutans, S. oralis,; also recorded: S. salivarious, S. sanguinis

1T-40 (QRVSLWSEVEHEFR)
Target(s) [1]: S. mutans, P. aeruginosa

PF-S003 (ALALLKQDLLNFEGRGRIITSTYLQFNEGCVP)
Target(s) [2]: yeast and hyphal forms | Target(s) [3]: S. epidermidis, M. luteus, P. mirabilis,; also recorded: E. coli, P. aeruginosa,; also recorded: C. albicans, MRSA, S. pneumoniae,; also recorded: E. faecalis, C. jeikeium,; also recorded: C. jejuni, M. smegmatis

1T-84 (FRKKRYGLSILLWLNAFTNLVNSIHAFYMTLF)
Target(s) [1]: S. pneumoniae

1T-108 (WGPLGPERPLW)
Target(s) [1]: S. gordonii, S. mitis, S. mutans,; also recorded: S. oralis, S. salivarious, S. sanguinis

1T-25 (VGLDVSVLVLFFGLQLLSVLLGAMIR)
Target(s) [1]: S. aureus, S. epidermidis, C. xerosis,; also recorded: C. striatum, P. aeruginosa

PF-C034 (HPMPITVRSRKPGPLTAPSEH)
Target(s) [3]: S. mutans, E. coli

1T-270 (VHEFDIQKILQNR)
Target(s) [2]: F. nucleatum, S. mutans, S. oralis,; also recorded: S. sanguinis

1T-277 (IYYMRFVNKPLEKTFFKI)
Target(s) [2]: A. naeslundii, F. nucleatum, P. gingivalis,; also recorded: T. denticola, S. gordonii,; also recorded: S. mitis, S. mutans, S. oralis,; also recorded: S. salivarious, S. sanguinis

1T-17 (NNAIVYIS)
Target(s) [2]: yeast and hyphal forms | Target(s) [1]: S. mutans

PF-029 (NSTNE)
Target(s) [2]: S. epidermidis, M. luteus, C. albicans,; also recorded: C. jejuni

1T-35 (EICLTLVFPIRGSYSEAAKFPVPIHIVEDGTVELPK)
Target(s) [1]: P. aeruginosa

PF-S004 (VLLNIFRTLLEFFSPSNAPGAEDVPLPDTQA)
Target(s) [3]: S. epidermidis, MRSA, C. jeikeium

PF-069 (FDPVPLKKDKSASKHSHKHNH)
Target(s) [2]: E. faecalis, C. jejuni

PF-141 (VVRRFQGM)
Target(s) [2]: C. albicans hyphae; also recorded: S. epidermidis, M. luteus, C. albicans,; also recorded: MRSA, C. jeikeium

PF-C084 (FFSVIFLFGLNYLICNSPLFNILR)
Target(s) [3]: A. naeslundii, F. nucleatum, P. gingivalis,; also recorded: S. mutans

1T-264 (LEGKFYMAEDFDKTPECFKDYV)
Target(s) [2]: S. sanguinis
